We go through five compounds from article PMC5761851, “Application of a phenotypic drug discovery strategy to identify biological and chemical starting points for inhibition of TSLP production in lung epithelial cells” (PLoS ONE, 2018).

What all share (assay): kinase selectivity panel
Holding throughout (type): biochemical

The target in one assay is T1, Aurora-A (Homo sapiens, UniProt O14965).
T1 construct: purchased Eurofins Pharma Discovery Services (KinaseProfiler; Cerep BioPrint panel)
T1 sequence (O14965 1-403): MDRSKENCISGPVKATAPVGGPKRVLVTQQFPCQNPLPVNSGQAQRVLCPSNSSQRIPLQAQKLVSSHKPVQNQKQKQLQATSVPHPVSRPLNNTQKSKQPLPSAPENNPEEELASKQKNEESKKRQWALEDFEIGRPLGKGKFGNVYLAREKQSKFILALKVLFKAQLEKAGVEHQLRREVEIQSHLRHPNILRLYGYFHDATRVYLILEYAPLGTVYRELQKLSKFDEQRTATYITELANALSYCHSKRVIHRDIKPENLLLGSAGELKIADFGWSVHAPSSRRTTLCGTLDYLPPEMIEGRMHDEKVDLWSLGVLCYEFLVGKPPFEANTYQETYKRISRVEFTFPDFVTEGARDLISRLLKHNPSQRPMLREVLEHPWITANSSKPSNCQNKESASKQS
The conditions noted are these: read-out: percentage of control activity (POC), Aurora-A. The method, boiled down:
(§1)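 First, 125 representative kinases were exposed to 10 μM compound in duplicate; next, selected activities were titrated over 9 concentrations in duplicate, and IC50 values were calculated.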

Another assay deals with T2, CDK6/cyclinD3 (Homo sapiens, UniProt Q00534).
T2 construct: purchased Eurofins Pharma Discovery Services (KinaseProfiler; Cerep BioPrint panel)
The conditions noted are these: read-out: percentage of control activity (POC), CDK6/cyclinD3. An outline of the steps:
as §1

A further assay has as its target T3, IGF-1R (Homo sapiens, UniProt P08069).
T3 construct: purchased Eurofins Pharma Discovery Services (KinaseProfiler; Cerep BioPrint panel)
The following applies: read-out: percentage of control activity (POC), IGF-1R. An outline of the steps: as §1

The target of a further assay is T4, MKK7β (Homo sapiens, UniProt O14733).
T4 construct: purchased Eurofins Pharma Discovery Services (KinaseProfiler; Cerep BioPrint panel)
T4 sequence (O14733 1-419): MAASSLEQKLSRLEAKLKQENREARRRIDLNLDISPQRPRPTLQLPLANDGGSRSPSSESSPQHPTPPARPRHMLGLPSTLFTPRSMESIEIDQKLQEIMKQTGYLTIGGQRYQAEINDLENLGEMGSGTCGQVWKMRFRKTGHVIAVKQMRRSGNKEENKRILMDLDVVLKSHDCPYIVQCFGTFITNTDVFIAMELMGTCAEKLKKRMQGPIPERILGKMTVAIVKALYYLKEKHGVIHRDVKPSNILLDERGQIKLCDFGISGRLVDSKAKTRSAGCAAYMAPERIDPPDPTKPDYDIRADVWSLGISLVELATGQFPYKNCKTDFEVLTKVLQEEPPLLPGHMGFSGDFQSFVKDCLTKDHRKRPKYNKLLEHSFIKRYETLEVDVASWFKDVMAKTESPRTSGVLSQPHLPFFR
The following applies: read-out: percentage of control activity (POC), MKK7β. The method, boiled down:
as §1

For the next assay, the target named is T5, NLK (Homo sapiens, UniProt Q9UBE8).
T5 construct: purchased Eurofins Pharma Discovery Services (KinaseProfiler; Cerep BioPrint panel)
T5 sequence (Q9UBE8 1-527): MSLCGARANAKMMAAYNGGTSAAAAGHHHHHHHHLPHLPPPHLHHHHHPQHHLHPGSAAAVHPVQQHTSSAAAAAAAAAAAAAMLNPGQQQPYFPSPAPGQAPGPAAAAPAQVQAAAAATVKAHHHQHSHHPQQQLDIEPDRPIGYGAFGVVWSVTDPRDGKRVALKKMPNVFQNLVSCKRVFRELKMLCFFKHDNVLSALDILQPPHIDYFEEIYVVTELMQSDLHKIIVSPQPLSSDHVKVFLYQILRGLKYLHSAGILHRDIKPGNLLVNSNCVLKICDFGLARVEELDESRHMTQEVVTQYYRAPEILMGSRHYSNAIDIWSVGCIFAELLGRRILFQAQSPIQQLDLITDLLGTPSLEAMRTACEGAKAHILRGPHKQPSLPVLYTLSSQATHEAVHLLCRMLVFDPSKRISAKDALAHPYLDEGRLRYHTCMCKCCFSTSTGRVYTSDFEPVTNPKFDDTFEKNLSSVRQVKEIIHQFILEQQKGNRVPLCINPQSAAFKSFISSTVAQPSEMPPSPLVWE
The conditions noted are these: read-out: percentage of control activity (POC), NLK. The method, boiled down:
as §1

The target in another assay is T6, Ret (Homo sapiens, UniProt P07949).
T6 construct: purchased Eurofins Pharma Discovery Services (KinaseProfiler; Cerep BioPrint panel)
The following applies: read-out: percentage of control activity (POC), Ret. The method, boiled down:
as §1

In another assay the target is T7, SAPK3 (Homo sapiens, UniProt P53778).
T7 construct: purchased Eurofins Pharma Discovery Services (KinaseProfiler; Cerep BioPrint panel)
T7 sequence (P53778 1-367): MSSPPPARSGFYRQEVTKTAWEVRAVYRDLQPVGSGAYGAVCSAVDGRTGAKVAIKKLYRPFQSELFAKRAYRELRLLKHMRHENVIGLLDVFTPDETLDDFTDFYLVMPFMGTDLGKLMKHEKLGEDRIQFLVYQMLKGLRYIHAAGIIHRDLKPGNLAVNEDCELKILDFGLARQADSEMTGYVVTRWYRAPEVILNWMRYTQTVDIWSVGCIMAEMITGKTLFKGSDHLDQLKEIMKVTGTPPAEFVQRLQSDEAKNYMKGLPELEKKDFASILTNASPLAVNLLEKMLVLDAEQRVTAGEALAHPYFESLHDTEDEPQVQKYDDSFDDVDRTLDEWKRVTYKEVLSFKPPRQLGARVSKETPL
The following applies: read-out: percentage of control activity (POC), SAPK3. The method, boiled down: as §1

In another assay the target is T8, cSRC (Homo sapiens, UniProt P12931).
T8 construct: purchased Eurofins Pharma Discovery Services (KinaseProfiler; Cerep BioPrint panel)
The conditions noted are these: read-out: percentage of control activity (POC), cSRC. The method, boiled down:
as §1

T6 sequence (P07949 29-1114): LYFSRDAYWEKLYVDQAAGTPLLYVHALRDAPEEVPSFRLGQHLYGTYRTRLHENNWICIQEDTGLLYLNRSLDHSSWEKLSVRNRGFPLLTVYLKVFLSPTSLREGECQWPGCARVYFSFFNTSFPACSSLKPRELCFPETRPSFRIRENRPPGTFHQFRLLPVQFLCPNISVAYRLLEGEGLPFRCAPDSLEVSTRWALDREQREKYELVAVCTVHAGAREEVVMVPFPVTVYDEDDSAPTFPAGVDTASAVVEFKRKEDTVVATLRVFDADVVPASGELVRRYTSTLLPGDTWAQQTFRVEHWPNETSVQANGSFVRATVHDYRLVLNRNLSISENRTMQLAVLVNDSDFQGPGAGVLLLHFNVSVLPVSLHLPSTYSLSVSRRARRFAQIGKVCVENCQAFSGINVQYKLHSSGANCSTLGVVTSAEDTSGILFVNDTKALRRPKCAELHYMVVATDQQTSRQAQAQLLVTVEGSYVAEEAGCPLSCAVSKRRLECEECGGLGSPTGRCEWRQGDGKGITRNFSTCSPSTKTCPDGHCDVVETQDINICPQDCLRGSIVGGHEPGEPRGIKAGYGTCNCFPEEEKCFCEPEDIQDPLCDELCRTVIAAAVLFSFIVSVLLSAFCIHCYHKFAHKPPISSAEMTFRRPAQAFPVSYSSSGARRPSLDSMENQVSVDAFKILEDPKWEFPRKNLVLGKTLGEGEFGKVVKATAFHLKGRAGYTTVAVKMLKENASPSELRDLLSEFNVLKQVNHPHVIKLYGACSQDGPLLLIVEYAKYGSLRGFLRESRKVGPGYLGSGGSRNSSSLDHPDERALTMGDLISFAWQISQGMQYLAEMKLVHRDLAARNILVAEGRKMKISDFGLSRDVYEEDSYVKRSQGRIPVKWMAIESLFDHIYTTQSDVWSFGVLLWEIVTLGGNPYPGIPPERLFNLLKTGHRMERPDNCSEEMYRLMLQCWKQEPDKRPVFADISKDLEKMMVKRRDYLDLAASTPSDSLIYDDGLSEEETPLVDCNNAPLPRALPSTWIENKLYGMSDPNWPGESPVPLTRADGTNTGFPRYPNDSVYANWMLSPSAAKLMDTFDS
T8 sequence (P12931 whole entry): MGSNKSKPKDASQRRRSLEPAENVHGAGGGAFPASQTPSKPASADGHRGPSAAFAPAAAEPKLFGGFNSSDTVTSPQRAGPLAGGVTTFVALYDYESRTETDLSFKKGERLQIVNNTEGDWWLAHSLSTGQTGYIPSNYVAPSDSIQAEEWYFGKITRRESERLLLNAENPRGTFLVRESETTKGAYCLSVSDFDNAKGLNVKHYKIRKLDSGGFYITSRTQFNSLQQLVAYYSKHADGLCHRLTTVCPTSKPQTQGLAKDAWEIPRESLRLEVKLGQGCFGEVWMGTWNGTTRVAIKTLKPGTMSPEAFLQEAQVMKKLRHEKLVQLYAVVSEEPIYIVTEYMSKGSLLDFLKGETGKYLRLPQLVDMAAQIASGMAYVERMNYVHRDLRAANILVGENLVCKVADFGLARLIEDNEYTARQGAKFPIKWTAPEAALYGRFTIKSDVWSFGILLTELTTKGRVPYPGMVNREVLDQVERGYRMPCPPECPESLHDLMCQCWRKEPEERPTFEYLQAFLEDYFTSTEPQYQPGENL
T3 sequence (P08069 31-1367): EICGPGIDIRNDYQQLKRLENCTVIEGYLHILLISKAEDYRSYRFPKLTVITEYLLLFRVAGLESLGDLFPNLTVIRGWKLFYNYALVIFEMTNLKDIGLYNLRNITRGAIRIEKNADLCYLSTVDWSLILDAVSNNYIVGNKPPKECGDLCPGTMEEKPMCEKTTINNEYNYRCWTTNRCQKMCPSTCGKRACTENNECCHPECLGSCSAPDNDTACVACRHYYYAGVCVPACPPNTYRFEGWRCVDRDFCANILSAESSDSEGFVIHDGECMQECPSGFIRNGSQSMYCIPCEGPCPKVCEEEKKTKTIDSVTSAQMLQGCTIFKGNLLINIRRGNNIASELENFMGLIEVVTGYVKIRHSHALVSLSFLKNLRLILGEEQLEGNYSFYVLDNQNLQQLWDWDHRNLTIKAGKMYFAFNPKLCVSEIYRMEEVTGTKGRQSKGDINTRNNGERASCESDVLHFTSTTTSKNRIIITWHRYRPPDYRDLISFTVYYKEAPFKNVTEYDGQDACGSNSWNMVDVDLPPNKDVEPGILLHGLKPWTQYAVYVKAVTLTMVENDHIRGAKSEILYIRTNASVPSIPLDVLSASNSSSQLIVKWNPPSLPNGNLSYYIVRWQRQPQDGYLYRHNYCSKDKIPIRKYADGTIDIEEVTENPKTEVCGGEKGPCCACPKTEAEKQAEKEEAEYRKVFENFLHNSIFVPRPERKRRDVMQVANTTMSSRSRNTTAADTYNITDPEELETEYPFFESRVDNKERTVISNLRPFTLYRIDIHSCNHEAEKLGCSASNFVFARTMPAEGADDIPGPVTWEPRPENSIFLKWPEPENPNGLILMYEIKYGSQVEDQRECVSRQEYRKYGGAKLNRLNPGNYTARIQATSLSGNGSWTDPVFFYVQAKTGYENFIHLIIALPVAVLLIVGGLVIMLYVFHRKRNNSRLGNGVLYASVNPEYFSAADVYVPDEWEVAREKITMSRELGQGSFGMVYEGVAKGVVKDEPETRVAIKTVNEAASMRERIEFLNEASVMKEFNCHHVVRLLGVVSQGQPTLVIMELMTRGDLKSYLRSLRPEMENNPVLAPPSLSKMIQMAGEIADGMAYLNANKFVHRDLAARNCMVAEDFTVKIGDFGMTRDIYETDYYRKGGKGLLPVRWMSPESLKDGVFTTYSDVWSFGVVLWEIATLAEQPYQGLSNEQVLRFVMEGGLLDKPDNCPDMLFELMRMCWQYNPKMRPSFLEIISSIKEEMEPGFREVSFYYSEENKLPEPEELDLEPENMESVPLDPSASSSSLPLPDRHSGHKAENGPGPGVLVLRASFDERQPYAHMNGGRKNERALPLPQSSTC
T2 sequence (Q00534 whole entry): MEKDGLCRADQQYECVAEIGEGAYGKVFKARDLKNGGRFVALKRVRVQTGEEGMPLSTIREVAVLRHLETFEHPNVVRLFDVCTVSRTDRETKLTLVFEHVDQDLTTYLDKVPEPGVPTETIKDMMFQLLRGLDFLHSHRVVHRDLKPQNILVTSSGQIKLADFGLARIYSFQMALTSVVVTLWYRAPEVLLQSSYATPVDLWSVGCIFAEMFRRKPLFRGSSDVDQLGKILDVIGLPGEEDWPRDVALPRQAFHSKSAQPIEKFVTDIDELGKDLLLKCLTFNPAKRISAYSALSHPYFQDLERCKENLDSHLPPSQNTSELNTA
T2 sequence (P30281 whole entry partner): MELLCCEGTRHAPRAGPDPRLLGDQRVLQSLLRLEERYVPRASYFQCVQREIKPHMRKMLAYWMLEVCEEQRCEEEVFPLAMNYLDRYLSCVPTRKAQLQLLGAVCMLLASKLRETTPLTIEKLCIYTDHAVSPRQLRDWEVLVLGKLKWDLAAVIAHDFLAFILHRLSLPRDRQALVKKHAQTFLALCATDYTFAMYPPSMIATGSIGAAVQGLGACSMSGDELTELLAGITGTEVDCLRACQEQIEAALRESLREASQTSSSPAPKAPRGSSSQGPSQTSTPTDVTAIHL

Consider `Cn1cc(-c2cccc(-c3nc(C(=O)NC4C5CC6CC4CC(O)(C6)C5)c(N)nc3N)c2)cn1` (stereo not shown) [compound 4], for which the remaining activity at 10 µM on Aurora-A stood at 89%; at CDK6/cyclinD3, 93%; at IGF-1R, 94%; on MKK7β, 101%; on NLK, 85%; at Ret, 63%. Moreover, the remaining activity at 10 µM on SAPK3 turned out to be 92%; on cSRC, 69%.

With `COc1c(NC(=O)c2ccc(C)c(-c3nnc4c(NCC(C)(C)C)nccn34)c2)cc(C(C)(C)C)cc1NS(C)(=O)=O` [compound 7, reference compound], the remaining activity at 10 µM amounted to 110% on Aurora-A; 100% at CDK6/cyclinD3; 123% on IGF-1R; 112% on MKK7β; 94% on NLK; 71% on Ret. In addition, the remaining activity at 10 µM on SAPK3 is 67%; at cSRC, 103%.

On to `Cc1ccc(C(=O)NCC2CC2)cc1-c1ccc2c(c1)NC(=O)C21CCCC1` [compound 3], for which the remaining activity at 10 µM on Aurora-A was determined as 96%; on CDK6/cyclinD3, 97%; on IGF-1R it was 89%; on MKK7β it was 116%; at NLK, 99%; on Ret, 89%. Also, the remaining activity at 10 µM at SAPK3 was 78%; on cSRC it was 103%.

Take `CC(C)(C)N1CCC(c2cc(-c3ccc(F)cc3Cl)c3cc[n+]([O-])c(-c4c(Cl)cccc4Cl)c3n2)CC1` [compound 2]: the remaining activity at 10 µM at Aurora-A worked out at 112%; at CDK6/cyclinD3, 102%; on IGF-1R it was 113%; on MKK7β, 110%; on NLK it was 86%; on Ret it was 100%. Also, the remaining activity at 10 µM on SAPK3 came to 75%; at cSRC it was 107%.

`CS(=O)(=O)N1CCN(c2ccc(Nc3ncc(C(N)=O)c(NC4CC4)n3)cc2)CC1` [compound 5]: the remaining activity at 10 µM on Aurora-A was 2%; on CDK6/cyclinD3, 23%; on IGF-1R, 64%; at MKK7β it was 7%; on NLK, 83%; at Ret, -1%. The values for the remaining activity at 10 µM at SAPK3 and on cSRC were 64% and 16%, respectively.
